# From US6268391A, “Benzylidene-1,3-dihydro-indol-2-one derivatives a receptor tyrosine kinase inhibitors, particularly of Raf kinases” (Glaxo Wellcome Inc., priority 1997, dated 2001)
# Target: T1, Human cRaf1 (Homo sapiens, UniProt P04049)
# T1 construct: poly-histidine (C); made in house
# Assay: Raf kinase assay (cRaf1 assay / Raf/MEK cascade assay)
# Assay type: biochemical
# Conditions: Table 3; read-out: Raf Kinase activity
# Experimental: The potency of cRaf1 dependent kinase activity was measured using one of two assay formats. The first measured cRaf1 catalyzed phosphorylation of MEK1, the natural substrate for cRaf1. This assay is referred to as the cRaf1 assay. The second measured the ability of cRaf1 to phosphorylate and activate MEK1. This assay is referred to as the Raf/MEK cascade assay.
# Human cRaf1 tagged with poly histidine at the carboxyterminus was expressed in a baculovirus expression system and purfied by Ni chelate affinity chromatography. Human MEK1 was expressed in E. coli as a fusion protein with Glutathione-S-transferase, and purified by glutathione sepharose affinity chromatography. […] Reactions contained cRaf1 (20 nM), MEK1 (100-500 nM), [γ-^32 P]ATP ([…]), Mg^2+ (10 mM), MOPS (50 mM, pH 7.5). Reactions were incubated at room temperature for periods of time ranging from 20-120 minutes. Inhibitors were diluted in 100% DMSO prior to addition to the assay. Reactions were terminated with an equal volume of 0.5% phosphoric acid. MEK1 phosphorylation was detected by scintillation counting following collection of protein onto phosphocellulose filters.
# Human cRaf1 and MEK1 were purified as described above. A peptide substrate phosphorylated by MEK1 was used as the final phosphoryl group acceptor. […] Assay conditions were the same as those described above except for the following modifications. Reactions contained cRaf1 (1-5 nM), MEK1 (60 nM), and peptide ([…]).
# T1 sequence (P04049 whole entry): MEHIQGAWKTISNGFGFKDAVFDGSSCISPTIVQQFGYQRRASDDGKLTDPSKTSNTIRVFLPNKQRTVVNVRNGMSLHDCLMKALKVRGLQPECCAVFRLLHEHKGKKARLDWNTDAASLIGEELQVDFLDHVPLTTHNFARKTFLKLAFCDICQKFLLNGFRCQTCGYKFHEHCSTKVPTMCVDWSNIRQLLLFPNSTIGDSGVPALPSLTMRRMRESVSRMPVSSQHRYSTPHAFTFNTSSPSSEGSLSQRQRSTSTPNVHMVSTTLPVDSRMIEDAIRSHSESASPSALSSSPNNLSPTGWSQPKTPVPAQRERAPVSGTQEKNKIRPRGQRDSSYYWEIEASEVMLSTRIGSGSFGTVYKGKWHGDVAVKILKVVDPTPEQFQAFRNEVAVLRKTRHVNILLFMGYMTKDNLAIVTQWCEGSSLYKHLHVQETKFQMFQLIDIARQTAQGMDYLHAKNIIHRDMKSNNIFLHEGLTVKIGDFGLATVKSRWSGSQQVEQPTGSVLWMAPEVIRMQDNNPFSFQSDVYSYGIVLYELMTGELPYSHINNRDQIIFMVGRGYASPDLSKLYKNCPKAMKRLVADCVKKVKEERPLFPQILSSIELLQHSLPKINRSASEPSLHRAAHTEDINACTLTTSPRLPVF
row,Compound,IC50 [µM]
1,"COc1cc(C=C2C(=O)Nc3ccc(I)cc32)cc(Br)c1O [Example 43, 3-(3-Bromo-4-hydroxy-5-methoxy-benzylidene)-5-iodo-1,3-dihydro-indol-2-one]",< 1
2,"O=C1Nc2ccc(Br)cc2C1=Cc1cc(I)c(O)c(I)c1 [Example 44, 5-Bromo-3-(3,5-diiodo-4-hydroxy-benzylidene)-1,3-dihydro-indol-2-one]",< 1
3,"O=C1Nc2ccc(OC(F)(F)F)cc2C1=Cc1cc(I)c(O)c(I)c1 [Example 45, 3-(3,5-diiodo-4-Hydroxy-benzylidene)-5-trifluoromethoxy-1,3-dihydro-indol-2-one]",< 1
4,"COc1cc(C=C2C(=O)Nc3ccccc32)cc(Br)c1O [Example 46, 3-(3-Bromo-4-hydroxy-5-methoxy-benzylidene)-1,3-dihydro-indol-2-one]",< 1
5,"O=C1Nc2ccccc2C1=Cc1cc([N+](=O)[O-])c(O)c([N+](=O)[O-])c1 [Example 47, 3-(3,5-dinitro-4-Hydroxy-benzylidene)-1,3-dihydro-indol-2-one]",1 to 10
6,"O=C1Nc2ccccc2C1=Cc1cc(Cl)c(O)c(Cl)c1 [Example 48, 3-(3,5-dichloro-4-Hydroxy-benzylidene)-1,3-dihydro-indol-2-one]",1 to 10
7,"COc1cc(C=C2C(=O)Nc3ccccc32)cc(Cl)c1O [Example 49, 3-(3-Chloro-4-hydroxy-5-methoxy-benzylidene)-1,3-dihydro-indol-2-one]",1 to 10
8,"O=C1Nc2ccccc2C1=Cc1cc(I)c(O)c(I)c1 [Example 50, 3-(3,5-diiodo-4-Hydroxy-benzylidene)-1,3-dihydro-indol-2-one]",1 to 10
9,"COc1cc(C=C2C(=O)Nc3ccc(Cl)cc32)cc(Br)c1O [Example 51, 3-(3-Bromo-4-hydroxy-5-methoxy-benzylidene)-5-chloro-1,3-dihydro-indol-2-one]",< 1
10,"O=C1Nc2ccc(Cl)cc2C1=Cc1cc([N+](=O)[O-])c(O)c([N+](=O)[O-])c1 [Example 52, 5-Chloro-3-(3,5-dinitro-4-hydroxy-benzylidene)-1,3-dihydro-indol-2-one]",< 1
11,"COc1cc(C=C2C(=O)Nc3ccc(Cl)cc32)cc([N+](=O)[O-])c1O [Example 53, 5-Chloro-3-(4-hydroxy-3-methoxy-5-nitro-benzylidene)-1,3-dihydro-indol-2-one]",< 1
12,"COc1cc(C=C2C(=O)Nc3ccc(Cl)cc32)cc(Cl)c1O [Example 54, 5-Chloro-3-(3-chloro-4-hydroxy-5-methoxy-benzylidene)-1,3-dihydro-indol-2-one]",< 1
13,"O=C1Nc2ccc(Cl)cc2C1=Cc1cc(I)c(O)c(I)c1 [Example 55, 5-Chloro-3-(3,5-diiodo-4-hydroxy-benzylidene)-1,3-dihydro-indol-2-one]",< 1
14,"CCOc1cc(C=C2C(=O)Nc3ccc(Br)cc32)cc(Br)c1O [Example 56, 5-Bromo-3-(3-bromo-5-ethoxy-4-hydroxy-benzylidene)-1,3-dihydro-indol-2-one]",< 1
15,"COc1cc(C=C2C(=O)Nc3ccc(Br)cc32)cc(Br)c1O [Example 57, 5-Bromo-3-(3-bromo-4-hydroxy-5-methoxy-benzylidene)-1,3-dihydro-indol-2-one]",< 1
16,"COc1cc(C=C2C(=O)Nc3cc(F)c(F)cc32)cc(Br)c1O [Example 58, 3-(3-Bromo-4-hydroxy-5-methoxy-benzylidene)-5,6-difluoro-1,3-dihydro-indol-2-one]",< 1
17,"CCOc1cc(C=C2C(=O)Nc3ccc(OC(F)(F)F)cc32)cc(Br)c1O [Example 59, 3-(3-Bromo-5-ethoxy-4-hydroxy-benzylidene)-5-trifluoromethoxy-1,3-dihydro-indol-2-one]",< 1
18,"O=C1Nc2ccc(OC(F)(F)F)cc2C1=Cc1cc(Cl)c(O)c(Cl)c1 [Example 60, 3-(3,5-Dichloro-4-hydroxy-benzylidene)-5-trifluoromethoxy-1,3-dihydro-indol-2-one]",< 1
19,"COc1cc(C=C2C(=O)Nc3ccc(OC(F)(F)F)cc32)cc(Br)c1O [Example 61, 3-(3-Bromo-4-hydroxy-5-methoxy-benzylidene)-5-trifluoromethoxy-1,3-dihydro-indol-2-one]",< 1
20,"O=C1Nc2c(cc([N+](=O)[O-])cc2[N+](=O)[O-])C1=Cc1cc(Br)c(O)c(Br)c1 [Example 62, 3-(3,5-Dibromo-4-hydroxy-benzylidene)-5,7-dinitro-1,3-dihydro-indol-2-one]",< 1

row,Compound,IC50 [µM]
1,"O=C1Nc2ccc([N+](=O)[O-])cc2C1=Cc1cc(Br)c(O)c(Br)c1 [Example 63, 3-(3,5-Dibromo-4-hydroxy-benzylidene)-5-nitro-1,3-dihydro-indol-2-one]",< 1
2,"O=C1Nc2c(I)cccc2C1=Cc1cc(Br)c(O)c(Br)c1 [Example 64, 3-(3,5-Dibromo-4-hydroxy-benzylidene)-7-iodo-1,3-dihydro-indol-2-one]",< 1
3,"O=C1Nc2ccc([N+](=O)[O-])cc2C1=Cc1cc(Cl)c(O)c(Cl)c1 [Example 65, 3-(3,5-Dichloro-4-hydroxy-benzylidene)-5-nitro-1,3-dihydro-indol-2-one]",< 1
4,"O=C1Nc2c(Br)cccc2C1=Cc1cc(Cl)c(O)c(Cl)c1 [Example 67, 7-Bromo-3-(3,5-dichloro-4-hydroxy-benzylidene)-1,3-dihydro-indol-2-one]",< 1
5,"CCOc1cc(C=C2C(=O)Nc3ccc([N+](=O)[O-])cc32)cc(Br)c1O [Example 68, 3-(3-Bromo-5-ethoxy-4-hydroxy-benzylidene)-5-nitro-1,3-dihydro-indol-2-one]",< 1
6,"CN(CC(N)=O)CC(=O)c1ccc2c(c1)C(=Cc1cc(Br)c(O)c(Br)c1)C(=O)N2 [Example 69, 2-(N-{3-[3-(3,5 Dibromo-4-hydroxy-benzylidene)-2-oxo-2,3-dihydro-1H-indol-5-yl]-2-oxo-ethyl}-N-methyl-amino)-acetamide]",< 1
7,"O=C1Nc2ccc(C(=O)CN(CCO)CCCO)cc2C1=Cc1cc(Br)c(O)c(Br)c1 [Example 70, 3-(3,5-Dibromo-4-hydroxy-benzylidene)-5-{2-[(N-2-hydroxy-ethyl)-N-(3-hydroxy-propyl)-amino]-acetyl}-1,3-dihydro-indol-2-one]",< 1
8,O=C1Nc2ccc(C(=O)CN3CCSCC3)cc2C1=Cc1cc(Br)c(O)c(Br)c1 [Example 72],< 1
9,O=C1Nc2ccc(C(=O)CN3CCOCC3)cc2C1=Cc1cc(Br)c(O)c(Br)c1 [Example 73],< 1
10,"O=C1Nc2ccc(C(=O)CN(CCO)CCO)cc2C1=Cc1cc(Br)c(O)c(Br)c1 [Example 74, 5-{2-[Bis-(2-hydroxy-ethyl)-amino]-acetyl}-3-(3,5-dibromo-4-hydroxy-benzylidene)-1,3-dihydro-indol-2-one]",< 1
11,CN(CCO)CC(=O)c1ccc2c(c1)C(=Cc1cc(Br)c(O)c(Br)c1)C(=O)N2 [Example 75],< 1
12,"O=C1Nc2ccc(C(=O)CN3CCSC3)cc2C1=Cc1cc(Br)c(O)c(Br)c1 [Example 76, 3-(3,5-Dibromo-4-hydroxy-benzylidene)-5-(2-(thiazolidin-3-yl)-acetyl)-1,3-dihydro-indol-2-one]",< 1
13,"O=C1Nc2ccc(C(=O)C[n+]3ccccc3)cc2C1=Cc1cc(Br)c(O)c(Br)c1 [Example 77, 3-(3,5-Dibromo-4-hydroxy-benzylidene)-5-(2-(N-pyridinium)-acetyl)-1,3-dihydro-indol-2-one chloride]",< 1
14,"CC(C)(C)C(=O)OCOc1c(Br)cc(C=C2C(=O)Nc3ccc(I)cc32)cc1Br [Example 80, 2,2-Dimethyl-propionic acid,2,6-dibromo-4-(5-iodo-2-oxo-1,3-dihydro-indol-3-ylidenemethyl)-phenoxymethyl ester]",10 to 100
15,"O=C1Nc2ccc(Br)cc2C1=Cc1cc(Br)c(O)c(Br)c1 [Example 81, 5-Bromo-3-(3,5-dibromo-4-hydroxy-benzylidene)-1,3-dihydro-indol-2-one]",< 1
16,"COc1cc(C=C2C(=O)Nc3ccc(Br)cc32)cc(Cl)c1O [Example 82, 5-Bromo-3-(3-chloro-4-hydroxy-5-methoxy-benzylidene)-1,3-dihydro-indol-2-one]",< 1
17,"CCN(CC)CC(=O)c1ccc2c(c1)C(=Cc1cc(Br)c(O)c(Br)c1)C(=O)N2 [Example 83, 3-(3,5-Dibromo-4-hydroxy-benzylidene)-5-(2-diethylamino-acetyl)-1,3-dihydro-indol-2-one]",< 1
18,"O=C1Nc2c(I)cc(C(=O)CCl)cc2C1=Cc1cc(Br)c(O)c(Br)c1 [Example 86, 5-(2-Chloro-acetyl)-3-(3,5-dibromo-4-hydroxy-benzylidene)-7-iodo-1,3-dihydro-indol-2-one]",< 1
19,"O=C1Nc2ccc(I)cc2C1=Cc1cc(Br)c(OC(=O)N(CCO)CCO)c(Br)c1 [Example 87, N-[bis-(2-hydroxy-ethyl)]carbamic acid, 2,6-dibromo-4-(5-iodo-2-oxo-1,3-dihydro-indol-3-ylidenemethyl) phenyl ester]",10 to 100
20,"O=C1Nc2ccc(C(=O)CCl)cc2C1=Cc1cc(Cl)c(O)c(Cl)c1 [Example 88, 5-(2-Chloro-acetyl)-3-(3,5-dichloro-4-hydroxy-benzylidene)-1,3-dihydro-indol-2-one]",< 1
